Among the test systems are A498; HCC 2998; HOP-62; HOP-92; HT-29; KM12; MDA-MB-231; NCI-H460; NCI/ADR-RES; OVCAR-3; PC-3; SF-295; SF-539; SK-MEL-5; SNB-19; TK-10; UACC-257; UACC-62; UO-31; HL-60.
Holding throughout (experiment): NCI anticancer screen, dose series, 48 h

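1) Cells in 96-well plates. 2) Compound, 48 h, 5 concentrations. 3) Linear interpolation between surrounding doses. 4) Unreached endpoint = highest concentration. At the GI50, growth is halved.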 Calls of active or inactive are those of the source. No stated cut-off is given here; in the data, active = GI50 up to about 1.1 µM and inactive = higher.

The values below come from ChEMBL document CHEMBL1201862, “PubChem BioAssay data set” (2004).

Turning to `O=C(O)c1cccc(/[As]=[As]\c2cccc(C(=O)O)c2)c1` (stereo not drawn), the GI50 with A498 is 28 µM (inactive); in the test with HCC 2998, 57.7 µM (inactive); with HOP-62 it was 35.2 µM (inactive); in the test with HOP-92, 18.7 µM (inactive); with HT-29 it was 49.3 µM (inactive); in the test with KM12 it was > 100 µM (inactive). Also, the GI50 was 21.6 µM (inactive) with MDA-MB-231; 36 µM (inactive) in the test on NCI-H460; 75.7 µM (inactive) with NCI/ADR-RES; 34.4 µM (inactive) in the test with OVCAR-3; 16.9 µM (inactive) in the test with PC-3; > 100 µM (inactive) with SF-295. Also, the GI50 was 16.6 µM (inactive) in the test with SF-539; 32.7 µM (inactive) in the test with SK-MEL-5; 32.2 µM (inactive) in the test with SNB-19; 23.2 µM (inactive) in the test with TK-10; 40.9 µM (inactive) in the test with UACC-257; 33.3 µM (inactive) in the test with UACC-62. For the same compound, the GI50 with UO-31 is 38.2 µM (inactive).
In the case of `CN(C)CCn1c(CO)nc2c1c(=O)n(C)c(=O)n2C`, the GI50 in the test with A498, in the test with HCC 2998, in the test with HL-60, in the test on HOP-62, with HT-29 and in the test with KM12 was > 100 µM (inactive) throughout. Moreover, the GI50 in the test on MDA-MB-231, in the test on NCI-H460, in the test on NCI/ADR-RES, in the test on OVCAR-3, in the test on PC-3 and in the test on SF-295 was > 100 µM (inactive) throughout. Further, the GI50 in the test on SF-539, in the test on SK-MEL-5, in the test on SNB-19, in the test on TK-10, with UACC-257 and with UACC-62 was > 100 µM (inactive) each time. Moreover, the GI50 in the test with UO-31 is > 100 µM (inactive).
Turning to `COC(=O)c1ccccc1NC(=O)/C(=N\NC(C)(C)C)C(C#N)c1nc(-c2ccc([N+](=O)[O-])cc2)cs1` (stereo not drawn), the GI50 in the test with A498, in the test with HCC 2998, in the test with HL-60, with HOP-92, with HT-29 and with KM12 was > 100 µM (inactive) in each case. For the same compound, the GI50 in the test with MDA-MB-231, with NCI-H460, in the test with NCI/ADR-RES, in the test on OVCAR-3, in the test with PC-3 and in the test on SF-295 was > 100 µM (inactive) throughout. The GI50 in the test on SF-539, with SK-MEL-5, in the test on SNB-19, in the test on UACC-257, in the test on UACC-62 and in the test on UO-31 was > 100 µM (inactive) in each case.
As for `O=C(NNC(=S)Nc1ccc(Br)cc1)c1cc(-c2ccccc2)nc2ccccc12`, the GI50 in the test with A498 is 13.8 µM (inactive); in the test with HCC 2998, 16.8 µM (inactive); with HOP-62, 20 µM (inactive); with HOP-92 it was 20 µM (inactive); with HT-29 it was 32.1 µM (inactive); in the test on KM12, 29.9 µM (inactive). The GI50 is 18.6 µM (inactive) in the test on MDA-MB-231; 20.8 µM (inactive) with NCI-H460; 18.6 µM (inactive) in the test with NCI/ADR-RES; 17 µM (inactive) in the test on OVCAR-3; 20.1 µM (inactive) in the test with PC-3; 19.2 µM (inactive) in the test with SF-295. Further, the GI50 in the test with SF-539 is 16.6 µM (inactive); in the test with SK-MEL-5, 15.8 µM (inactive); in the test on SNB-19 it was 27.2 µM (inactive); in the test on TK-10, 14.9 µM (inactive); in the test with UACC-257, 23.2 µM (inactive); in the test on UACC-62, 20 µM (inactive). Besides, the GI50 in the test with UO-31 is 17.1 µM (inactive).
In the case of `CN(C)c1ccc(/C=C(\NC(=O)c2ccccc2)C(=O)Nc2ccccc2C(=O)NN2C(=O)CSC2c2ccc(N(C)C)cc2)cc1` (stereo not drawn), the GI50 is > 100 µM (inactive) in the test with A498; 6.37 µM (inactive) with HCC 2998; > 100 µM (inactive) in the test on HL-60; 93.1 µM (inactive) in the test on HOP-62; > 100 µM (inactive) with HOP-92; > 100 µM (inactive) in the test on HT-29. The GI50 with KM12 was > 100 µM (inactive); in the test with MDA-MB-231, > 100 µM (inactive); with NCI-H460, 10.7 µM (inactive); with NCI/ADR-RES it was > 100 µM (inactive); in the test with OVCAR-3 it was > 100 µM (inactive); in the test with PC-3 it was > 100 µM (inactive). Moreover, the GI50 is > 100 µM (inactive) in the test with SF-295; 79.8 µM (inactive) in the test with SF-539; 94.6 µM (inactive) in the test on SK-MEL-5; > 100 µM (inactive) in the test on SNB-19; 16.1 µM (inactive) in the test with UACC-257; > 100 µM (inactive) with UACC-62. Also, in the test with UO-31, the GI50 is > 100 µM (inactive).
For the compound `CCOC(=O)c1cc(Br)c(-c2onc(C)c2Br)n1C`, the GI50 is 45.2 µM (inactive) with A498; 85.9 µM (inactive) in the test with HCC 2998; 11.8 µM (inactive) in the test on HL-60; 35.6 µM (inactive) in the test on HOP-62; 21.8 µM (inactive) in the test with KM12; 24.2 µM (inactive) in the test with MDA-MB-231. The GI50 in the test with NCI-H460 was 40 µM (inactive); in the test on NCI/ADR-RES, 37.2 µM (inactive); with OVCAR-3 it was 31.6 µM (inactive); with PC-3 it was 35.3 µM (inactive); in the test with SF-295, 23.9 µM (inactive); with SF-539, > 100 µM (inactive). Besides, the GI50 in the test with SK-MEL-5 is 16.9 µM (inactive); in the test on SNB-19, 46.2 µM (inactive); in the test with TK-10, 66.8 µM (inactive); in the test on UACC-257 it was 44.7 µM (inactive); with UACC-62, 27.9 µM (inactive); in the test on UO-31, 45.9 µM (inactive).
On to `C[C@@H]1CC(=O)[C@@]2(C)[C@](O)(CCC3O[C@]32C)[C@@]12CC(c1ccoc1)OC2=O` (stereo partly drawn), for which the GI50 with A498 was 94.4 µM (inactive); in the test with HCC 2998, > 100 µM (inactive); with HL-60 it was 24.9 µM (inactive); in the test on HT-29, 48.5 µM (inactive); with KM12 it was > 100 µM (inactive); in the test on MDA-MB-231, > 100 µM (inactive). Besides, the GI50 is 66.7 µM (inactive) in the test with NCI-H460; 46.2 µM (inactive) with NCI/ADR-RES; > 100 µM (inactive) with OVCAR-3; > 100 µM (inactive) in the test with PC-3; > 100 µM (inactive) in the test with SF-295; > 100 µM (inactive) in the test on SF-539. In addition, the GI50 was 44.3 µM (inactive) in the test on SK-MEL-5; > 100 µM (inactive) with SNB-19; > 100 µM (inactive) in the test on TK-10; > 100 µM (inactive) in the test on UACC-257; 56.9 µM (inactive) with UACC-62; > 100 µM (inactive) with UO-31.
In the case of `Cc1ccc2c(O)cc(-c3cccc4ccccc34)nc2n1`, the GI50 is 0.0101 µM (active) in the test on A498; 0.0294 µM (active) in the test with HCC 2998; < 0.01 µM (active) with HL-60; 1.88 µM (inactive) in the test with HOP-62; 0.0127 µM (active) in the test on HOP-92; < 0.0116 µM (active) with HT-29. Besides, the GI50 was 0.0241 µM (active) in the test on KM12; 0.0522 µM (active) in the test on MDA-MB-231; 0.0342 µM (active) in the test on NCI-H460; 0.0186 µM (active) in the test on NCI/ADR-RES; < 0.0149 µM (active) in the test with OVCAR-3; 0.0282 µM (active) with PC-3. The GI50 was 0.0193 µM (active) in the test with SF-295; 0.0216 µM (active) in the test with SF-539; < 0.0117 µM (active) in the test with SK-MEL-5; 0.0445 µM (active) in the test on SNB-19; 0.01 µM (active) with UACC-62; 0.189 µM (active) in the test on UO-31.
